Assays:
E. coli = assay: main culture of transformed E. coli in TY medium containing selenocystine; format: cell-based; conditions: TY++ line: 0.1 mM selenocystine present during the initial stage of culture, 25° C.
Method: In a 19 ml test tube, each of the bacterial strains shown in Table 13 was inoculated into 2.5 ml of a TY medium. The inoculated medium was then seed-cultured at 37° C. for 16 hours while agitated at 180 rpm. In a 19 ml test tube, 20 μl of the seed culture was inoculated into 2.5 ml of a TY medium containing ampicillin and 0.5 mM IPTG. The inoculated medium was then main-cultured at 25° C. for 20.5 hours while agitated at 180 rpm. Three different lines of TY medium were prepared for the main culture: a TY medium containing 0.1 mM selenocystine (TY++), a TY medium containing 0.01 mM selenocystine (TY+), and a TY medium to which selenocystine was added to 0.01 mM six hours after the start of culture (TY+∘).
In addition, the amount of selenoneine produced by the (EcEgtA+EcEgtC) transformant was higher than that of the EcEgtA transformant and the difference between the two transformants was more significant in the culture supernatants.

[1] = compared with ergothioneine; cited from earlier work

Structure (SMILES) | growth inhibition (E. coli) | antioxidant activity relative to ergothioneine [1]
N[C@@H](C[Se][Se]C[C@H](N)C(=O)O)C(=O)O [selenocystine] | caused growth inhibition | 
C[N+](C)(C)[C@@H](Cc1cnc([Se-])[nH]1)C(=O)O [selenoneine] |  | 1,000 times

Source: US11629341B2, “Method for producing selenoneine” (KIKKOMAN CORPORATION, priority 2015, dated 2023)
